Like-named read-outs stand apart in the source and are kept apart here.
How the values were obtained:
[1] = test system: cigarette smoke-induced pulmonary macrophage and neutrophil influx; assay: Cigarette Smoke Model; format: in vivo, mouse; details: A/J mice
Description: A/J mice (males, 5 weeks old) were exposed to cigarette smoke (4% cigarette smoke, diluted with compressed air) for 30 min/day for 11 days using a Tobacco Smoke Inhalation Experiment System for small animals (Model SIS-CS; Sibata Scientific Technology, Tokyo, Japan). Test substances were given intra-nasally (35 μL of solution in 50% DMSO/PBS) and therapeutically twice daily for 3 days after the final cigarette smoke exposure. Twelve hr after the last dosing, animals were anesthetized, the trachea cannulated and bronchoalveolar lavage fluid (BALF) was collected. The numbers of alveolar macrophages and neutrophils were determined by FACS analysis (EPICS® ALTRA II, Beckman Coulter, Inc., Fullerton, Calif., USA) using anti-mouse MOMA2 antibody (macrophage) or anti-mouse 7/4 antibody (neutrophil).

recombinant PI3 kinase γ = recombinant PI3 kinase γ (Homo sapiens (Human), UniProt P48736); assay: Enzyme Inhibition Assay (HTRF PI3K enzyme assay, TR-FRET); format: biochemical
Chain of recombinant PI3 kinase γ (P48736 whole entry, the tested form may be a part): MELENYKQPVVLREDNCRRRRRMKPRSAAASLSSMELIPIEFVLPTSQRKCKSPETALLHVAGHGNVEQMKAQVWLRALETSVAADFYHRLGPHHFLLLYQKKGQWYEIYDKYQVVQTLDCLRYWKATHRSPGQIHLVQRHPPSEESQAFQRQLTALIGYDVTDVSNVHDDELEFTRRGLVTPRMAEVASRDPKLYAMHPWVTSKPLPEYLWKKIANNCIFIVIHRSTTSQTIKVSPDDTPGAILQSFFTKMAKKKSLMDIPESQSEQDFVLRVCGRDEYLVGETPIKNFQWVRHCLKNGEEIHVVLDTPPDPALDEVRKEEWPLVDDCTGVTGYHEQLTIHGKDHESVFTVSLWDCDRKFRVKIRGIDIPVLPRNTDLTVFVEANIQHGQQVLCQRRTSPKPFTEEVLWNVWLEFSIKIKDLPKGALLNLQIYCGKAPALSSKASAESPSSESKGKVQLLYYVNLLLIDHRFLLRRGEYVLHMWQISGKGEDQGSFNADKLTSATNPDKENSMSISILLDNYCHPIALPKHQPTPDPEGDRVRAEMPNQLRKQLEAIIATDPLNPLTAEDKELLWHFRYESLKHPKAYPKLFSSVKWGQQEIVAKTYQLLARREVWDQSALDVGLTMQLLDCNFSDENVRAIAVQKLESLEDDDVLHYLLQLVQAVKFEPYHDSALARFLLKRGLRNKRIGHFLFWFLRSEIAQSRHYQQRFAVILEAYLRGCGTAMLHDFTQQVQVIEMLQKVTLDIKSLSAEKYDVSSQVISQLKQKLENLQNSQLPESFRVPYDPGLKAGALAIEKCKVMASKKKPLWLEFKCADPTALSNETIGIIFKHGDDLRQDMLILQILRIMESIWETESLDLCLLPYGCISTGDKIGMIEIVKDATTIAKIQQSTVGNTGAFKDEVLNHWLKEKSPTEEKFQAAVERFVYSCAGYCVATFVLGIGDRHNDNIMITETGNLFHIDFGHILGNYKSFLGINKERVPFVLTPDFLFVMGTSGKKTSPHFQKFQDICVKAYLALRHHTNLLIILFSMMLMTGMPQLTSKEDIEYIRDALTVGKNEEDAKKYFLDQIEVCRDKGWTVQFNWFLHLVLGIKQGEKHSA
Outline: (§1)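 TR-FRET readout after 15-18 hr at RT with biotinylated PIP3, GST-tagged GRP1 PH domain and europium/APC fluorophores; product PIP3 displaces the tracer and lowers the signal. Beforehand, compound and PIP2 were reacted for 2 hr at RT with human recombinant PI3Kα, δ or γ.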

[2] = test system: PMA-differentiated U937 cells; assay: MTT Assay (cell viability); format: cell-based, Human; details: percentage loss of cell viability; for Cell Viability MTT Assay in D-U937 cells at 4 hr: 4 hr in 5% FCS; for Cell Viability MTT Assay in D-U937 cells at 24 hr: 24 hr in 10% FCS
Outline: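 Differentiated U937 cells treated with compound for 4 hr (5% FCS) or 24 hr (10% FCS), then given MTT for 1 hr; formazan dissolved in DMSO and absorbance read at 550 nm. Viability loss expressed as % versus 0.5% DMSO vehicle.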

[3] = test system: LPS induced neutrophilia in mouse lung; assay: LPS-Induced Neutrophilia in the Mouse; format: in vivo; details: for % Inhibition of neutrophils in BAL at the dose indicated (mg/mL) (0.05): 0.05 mg/mL intra-tracheal; for % Inhibition of neutrophils in BAL at the dose indicated (mg/mL) (0.05) / % Inhibition of neutrophils in BAL at the dose indicated (mg/mL) (0.2) / % Inhibition of neutrophils in BAL at the dose indicated (mg/mL) (1.0): 2 hr before LPS challenge; for % Reduction of inhibition at 8 hr compared with 2 hr: 0.2 mg/mL dose; for % Reduction of inhibition at 8 hr compared with 2 hr / % Inhibition at 0.2 mg/mL dose at time indicated (hr) (2) / % Inhibition at 0.2 mg/mL dose at time indicated (hr) (8): mouse lung; for % Inhibition of neutrophils in BAL at the dose indicated (mg/mL) (0.2): 0.2 mg/mL intra-tracheal; for % Inhibition at 0.2 mg/mL dose at time indicated (hr) (2): dosed 2 hr before LPS challenge; for % Inhibition at 0.2 mg/mL dose at time indicated (hr) (8): dosed 8 hr before LPS challenge; for % Inhibition of neutrophils in BAL at the dose indicated (mg/mL) (1.0): 1.0 mg/mL intra-tracheal; for inhibition of LPS-induced neutrophilia (neutrophil influx into the lung), in words: intra-tracheal dosing before LPS challenge
Description: Non-fasted mice were dosed by the intra-tracheal route with either vehicle, or the test substance at the time points (“pre-dose”) indicated with respect to the start of LPS treatment. At T=0, mice were placed into an exposure chamber and exposed to LPS. Eight hr after LPS challenge, animals were anesthetized, the trachea cannulated and BALF extracted by infusing and withdrawing 1 mL of PBS into the lungs via a tracheal catheter. Total and differential white cell counts in the BALF samples were measured using a Neubaur haemocytometer. Cytospin smears of the BALF samples were prepared by centrifugation at 200 rpm for 5 min at RT and stained using a DiffQuik stain system (Dade Behring). Cells were counted using oil immersion microscopy.

recombinant PI3 kinase δ = recombinant PI3 kinase δ (Homo sapiens (Human), UniProt O00329); assay: Enzyme Inhibition Assay (HTRF PI3K enzyme assay, TR-FRET); format: biochemical
Chain of recombinant PI3 kinase δ (O00329 whole entry): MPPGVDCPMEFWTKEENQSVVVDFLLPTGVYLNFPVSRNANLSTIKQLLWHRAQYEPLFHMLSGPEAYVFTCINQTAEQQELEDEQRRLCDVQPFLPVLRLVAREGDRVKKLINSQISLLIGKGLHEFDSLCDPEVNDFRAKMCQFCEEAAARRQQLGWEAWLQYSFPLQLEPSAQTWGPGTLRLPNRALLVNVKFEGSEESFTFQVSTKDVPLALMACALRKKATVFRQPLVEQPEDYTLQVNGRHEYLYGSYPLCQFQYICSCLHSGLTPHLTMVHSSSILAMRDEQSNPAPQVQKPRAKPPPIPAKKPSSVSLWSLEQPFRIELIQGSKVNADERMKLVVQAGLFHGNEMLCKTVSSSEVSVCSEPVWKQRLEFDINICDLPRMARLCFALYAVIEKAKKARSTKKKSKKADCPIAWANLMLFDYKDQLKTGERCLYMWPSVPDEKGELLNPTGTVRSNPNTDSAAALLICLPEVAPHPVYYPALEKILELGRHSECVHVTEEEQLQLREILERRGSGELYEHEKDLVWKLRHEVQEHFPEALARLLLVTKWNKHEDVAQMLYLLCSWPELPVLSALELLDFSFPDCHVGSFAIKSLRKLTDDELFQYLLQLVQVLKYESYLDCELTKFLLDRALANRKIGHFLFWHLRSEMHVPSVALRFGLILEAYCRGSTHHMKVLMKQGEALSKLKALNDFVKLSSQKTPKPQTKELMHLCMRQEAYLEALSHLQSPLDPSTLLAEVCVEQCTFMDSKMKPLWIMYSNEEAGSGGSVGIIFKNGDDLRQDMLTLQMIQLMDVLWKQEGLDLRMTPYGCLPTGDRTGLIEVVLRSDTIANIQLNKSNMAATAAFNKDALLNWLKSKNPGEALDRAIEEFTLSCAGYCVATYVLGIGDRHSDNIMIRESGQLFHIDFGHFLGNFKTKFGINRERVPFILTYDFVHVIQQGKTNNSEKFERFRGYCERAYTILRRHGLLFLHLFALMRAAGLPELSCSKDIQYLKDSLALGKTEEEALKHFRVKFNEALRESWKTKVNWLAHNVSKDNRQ
Chain of recombinant PI3 kinase δ (P27986 whole entry partner): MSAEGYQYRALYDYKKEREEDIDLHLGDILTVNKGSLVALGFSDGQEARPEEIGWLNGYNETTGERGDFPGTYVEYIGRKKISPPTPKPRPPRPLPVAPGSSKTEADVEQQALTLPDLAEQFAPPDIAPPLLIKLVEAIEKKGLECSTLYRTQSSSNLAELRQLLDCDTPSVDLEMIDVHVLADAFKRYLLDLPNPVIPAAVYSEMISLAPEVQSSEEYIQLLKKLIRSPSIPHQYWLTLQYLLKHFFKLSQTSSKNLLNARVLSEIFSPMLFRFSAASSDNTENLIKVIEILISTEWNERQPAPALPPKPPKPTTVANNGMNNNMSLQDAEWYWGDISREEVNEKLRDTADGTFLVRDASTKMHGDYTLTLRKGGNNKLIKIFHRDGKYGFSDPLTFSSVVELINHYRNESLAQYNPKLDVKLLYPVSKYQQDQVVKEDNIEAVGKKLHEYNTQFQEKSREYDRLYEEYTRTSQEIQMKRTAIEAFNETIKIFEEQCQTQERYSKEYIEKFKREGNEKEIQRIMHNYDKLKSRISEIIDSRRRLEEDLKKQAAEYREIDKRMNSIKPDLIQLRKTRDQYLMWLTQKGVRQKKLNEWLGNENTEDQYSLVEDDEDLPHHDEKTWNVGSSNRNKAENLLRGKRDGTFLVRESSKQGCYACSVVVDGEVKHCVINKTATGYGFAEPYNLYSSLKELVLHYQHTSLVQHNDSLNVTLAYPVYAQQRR
Outline: as §1

recombinant PI3 kinase α = recombinant PI3 kinase α (Homo sapiens (Human), UniProt P42336); assay: as above; format: biochemical
Chain of recombinant PI3 kinase α (P42336 whole entry): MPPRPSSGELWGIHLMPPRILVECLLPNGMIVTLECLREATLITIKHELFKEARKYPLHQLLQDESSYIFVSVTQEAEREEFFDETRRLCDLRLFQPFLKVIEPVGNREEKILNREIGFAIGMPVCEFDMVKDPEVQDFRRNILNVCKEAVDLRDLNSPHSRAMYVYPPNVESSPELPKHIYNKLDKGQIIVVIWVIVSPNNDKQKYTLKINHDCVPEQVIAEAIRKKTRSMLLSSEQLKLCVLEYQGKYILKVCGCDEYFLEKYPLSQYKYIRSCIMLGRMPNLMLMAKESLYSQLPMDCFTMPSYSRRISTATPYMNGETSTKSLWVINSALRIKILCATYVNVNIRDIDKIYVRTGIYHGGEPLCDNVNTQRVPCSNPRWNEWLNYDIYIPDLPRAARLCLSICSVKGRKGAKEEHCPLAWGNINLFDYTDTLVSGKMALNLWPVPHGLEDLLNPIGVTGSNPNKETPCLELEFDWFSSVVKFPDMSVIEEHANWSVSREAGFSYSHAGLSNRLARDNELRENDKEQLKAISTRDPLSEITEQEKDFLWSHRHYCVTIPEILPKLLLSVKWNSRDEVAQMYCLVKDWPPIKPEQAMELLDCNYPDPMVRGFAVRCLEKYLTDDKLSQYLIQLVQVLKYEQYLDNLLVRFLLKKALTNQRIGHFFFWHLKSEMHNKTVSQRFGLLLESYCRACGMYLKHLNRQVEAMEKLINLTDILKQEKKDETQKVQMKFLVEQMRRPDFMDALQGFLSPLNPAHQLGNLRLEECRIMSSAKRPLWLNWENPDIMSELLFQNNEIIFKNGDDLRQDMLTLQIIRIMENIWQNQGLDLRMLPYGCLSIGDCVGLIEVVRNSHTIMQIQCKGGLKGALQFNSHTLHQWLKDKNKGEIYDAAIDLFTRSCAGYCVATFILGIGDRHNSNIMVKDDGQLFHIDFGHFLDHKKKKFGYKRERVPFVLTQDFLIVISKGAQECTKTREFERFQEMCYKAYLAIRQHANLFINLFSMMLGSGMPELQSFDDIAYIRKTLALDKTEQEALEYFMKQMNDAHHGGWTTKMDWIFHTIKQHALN
Chain of recombinant PI3 kinase α (P27986 whole entry partner): as the sequence (P27986 whole entry partner) above
Outline: as §1

[4] = test system: H2O2 induced pAkt in D-U937 cells; assay: PI3Kδ Cell Based Assay (H2O2 induced pAkt); details: Homo sapiens, dU937
Outline: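 Read-out is the pAkt/total Akt signal ratio, measured with anti-pAkt and anti-pan-Akt antibodies after H2O2 stimulation. Cells were U937 monocytes given PMA (100 ng/mL) for 48 to 72 hr. IC50 values fitted from compound serial dilutions.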

[5] = Stereochemical analysis by chiral stationary phase HPLC (atropisomerism); format: physicochemical; details: chiral stationary phase HPLC (16 different conditions for the examples)
Description: Each of these mobile phase are compatible with the column packings referred to above, providing sixteen different solvent and stationary phase permutations. Modifiers such as triethylamine (0.1%), formic acid (0.1%) may be added to improve the resolution
Semi-preparative Chiral Stationary Phase LC-UV was performed on a Gilson preparative modular system using a Daicel Chiralpak AD semi-prep column ([…], 20×250 mm) and a flow rate of 18 mL/min eluting with an isocratic method over 20 min using […] heptane:IPA and 0.1% triethylamine employing an injection volume of 1.0 mL.

[6] = activity range, read-out: PI3 Kinase Inhibition IC50 values at stated Isozyme γ
[7] = read-out: PI3 Kinase Inhibition IC50 values at stated Isozyme (nM) γ
[8] = activity range, read-out: PI3 Kinase Inhibition IC50 values at stated Isozyme δ
[9] = activity range, read-out: PI3 Kinase Inhibition IC50 values at stated Isozyme α
[10] = activity range, D-U937 cells, read-out: Cellular Activity IC50 values (H2O2 induced pAkt D-U937 Cells)

Row | Compound | IC50 (recombinant PI3 kinase γ; [6]) [nM] | Cell Viability MTT Assay in D-U937 cells at 4 hr [2] | Cell Viability MTT Assay in D-U937 cells at 24 hr [2] | IC50 (recombinant PI3 kinase δ; [8]) [nM] | IC50 (recombinant PI3 kinase α; [9]) [nM] | IC50 [4, 10] [nM] | atropisomerism by chiral stationary phase HPLC [5] | further results
1 | C[C@@H]1C[C@H]2[C@@H]3CCC4=CC(=O)C=C[C@]4(C)[C@@]3(F)[C@@H](O)C[C@]2(C)[C@@]1(O)C(=O)CO [dexamethasone, reference compound] | – | – | – | – | – | – | – | anti-inflammatory activity (BALF neutrophils and alveolar macrophages) ([1]; 0.3-10 mg/kg, p.o.): inactive
2 | CCC(=O)O[C@]1(C(=O)SCF)[C@H](C)C[C@H]2[C@@H]3C[C@H](F)C4=CC(=O)C=C[C@]4(C)[C@@]3(F)[C@@H](O)C[C@@]21C [fluticasone propionate, reference compound] | – | – | – | – | – | – | – | anti-inflammatory activity (BALF neutrophils and alveolar macrophages), monotherapy ([1]; monotherapy, twice daily for 3 days after final smoke exposure): lacks effect as monotherapy
3 | Nc1ncnc2c1c(-c1ccc(O)cc1)nn2Cc1nc2cccc(C#CCCCC(=O)O)c2c(=O)n1Cc1ccccc1Cl [Example 4, 6-(2-((4-Amino-3-(4-hydroxyphenyl)-1H-pyrazolo[3,4-d]pyrimidin-1-yl)methyl)-3-(2-chlorobenzyl)-4-oxo-3,4-dihydroquinazolin-5-yl)hex-5-ynoic acid] | < 50 | − (− <30%) | − (− <30%) | – | – | – | – | IC50 (recombinant PI3 kinase γ; [7]): 20 nM; % Inhibition of neutrophils in BAL at the dose indicated (mg/mL) (0.05) ([3]; mouse): 3.2%; % Reduction of inhibition at 8 hr compared with 2 hr [3]: 73%; % Inhibition of neutrophils in BAL at the dose indicated (mg/mL) (0.2) ([3]; mouse): 47.2%; % Inhibition at 0.2 mg/mL dose at time indicated (hr) (2) [3]: 47.2%; % Inhibition at 0.2 mg/mL dose at time indicated (hr) (8) [3]: 12.9%; % Inhibition of neutrophils in BAL at the dose indicated (mg/mL) (1.0) ([3]; mouse): 64.6%; inhibition of LPS-induced neutrophilia (neutrophil influx into the lung), in words ([3]; mouse): dose dependent inhibition
4 | C#Cc1cccc2nc(Cn3nc(-c4ccc(O)cc4)c4c(N)ncnc43)n(Cc3cccc(Cl)c3F)c(=O)c12 [Example 33, 2-((4-Amino-3-(4-hydroxyphenyl)-1H-pyrazolo[3,4-d]pyrimidin-1-yl)methyl)-3-(3-chloro-2-fluorobenzyl)-5-ethynylquinazolin-4(3H)-one] | 50 to 1000 | − (− <30%) | − (− <30%) | < 50 | 50 to 1000 | < 10 | no evidence for atropisomerism was observed | –
5 | C#Cc1cccc2nc(Cn3nc(-c4cccc(O)c4)c4c(N)ncnc43)n(Cc3ccc(C(F)(F)F)cc3)c(=O)c12 [Example 21, 2-((4-Amino-3-(3-hydroxyphenyl)-1H-pyrazolo[3,4-d]pyrimidin-1-yl)methyl)-5-ethynyl-3-(4-(trifluoromethyl)benzyl)quinazolin-4(3H)-one] | 50 to 1000 | − (− <30%) | − (− <30%) | < 50 | 50 to 1000 | < 10 | no evidence for atropisomerism was observed | –
6 | C#Cc1cccc2nc(Cn3nc(-c4cccc(O)c4)c4c(N)ncnc43)n(Cc3cccc(C#N)c3)c(=O)c12 [Example 24, 3-((2-((4-Amino-3-(3-hydroxyphenyl)-1H-pyrazolo[3,4-d]pyrimidin-1-yl)methyl)-5-ethynyl-4-oxoquinazolin-3(4H)-yl)methyl)benzonitrile] | 50 to 1000 | − (− <30%) | − (− <30%) | < 50 | 50 to 1000 | < 10 | no evidence for atropisomerism was observed | –
7 | Nc1ncnc2c1c(-c1ccc(O)cc1)nn2Cc1nc2cccc(C#CCCCC(=O)N3CCOCC3)c2c(=O)n1Cc1ccccc1Cl [Example 5, 2-((4-Amino-3-(4-hydroxyphenyl)-1H-pyrazolo[3,4-d]pyrimidin-1-yl)methyl)-3-(2-chlorobenzyl)-5-(6-morpholino-6-oxohex-1-yn-1-yl)quinazolin-4(3H)-one] | < 50 | − (− <30%) | − (− <30%) | < 50 | < 50 | < 10 | – | IC50 (recombinant PI3 kinase δ; read-out: PI3 Kinase Inhibition IC50 values at stated Isozyme (nM) δ): 20 nM; IC50 (recombinant PI3 kinase γ; [7]): 16 nM; IC50 (recombinant PI3 kinase α; read-out: PI3 Kinase Inhibition IC50 values at stated Isozyme (nM) α): 20 nM; IC50 ([4]; read-out: Cellular Activity IC50 values (H2O2 induced pAkt (nM) D-U937 Cells)): 0.58 nM; % Inhibition of neutrophils in BAL at the dose indicated (mg/mL) (0.05) ([3]; mouse): 4.8%; % Reduction of inhibition at 8 hr compared with 2 hr [3]: 44%; % Inhibition of neutrophils in BAL at the dose indicated (mg/mL) (0.2) ([3]; mouse): 37.7%; % Inhibition at 0.2 mg/mL dose at time indicated (hr) (2) [3]: 37.7%; % Inhibition at 0.2 mg/mL dose at time indicated (hr) (8) [3]: 21.2%; % Inhibition of neutrophils in BAL at the dose indicated (mg/mL) (1.0) ([3]; mouse): 58.5%; inhibition of LPS-induced neutrophilia (neutrophil influx into the lung), in words ([3]; mouse): dose dependent inhibition; level of anti-inflammatory activity at the 8 hr time point relative to value 2 hr after drug treatment ([3]; same dose, LPS challenge, mouse): over half of its original value
8 | C#Cc1cccc2nc(Cn3nc(-c4ccc(O)cc4)c4c(N)ncnc43)n(Cc3ccc(F)cc3)c(=O)c12 [Example 38, 2-((4-Amino-3-(4-hydroxyphenyl)-1H-pyrazolo[3,4-d]pyrimidin-1-yl)methyl)-5-ethynyl-3-(4-fluorobenzyl) quinazolin-4(3H)-one] | 50 to 1000 | − (− <30%) | − (− <30%) | < 50 | 50 to 1000 | < 10 | no evidence for atropisomerism was observed | –

Source: patent US9321773B2, “Compounds” (Respivert Ltd, priority 2009, dated 2016)
